The source of these data is publication PMC5632727, “Boeravinone B, A Novel Dual Inhibitor of NorA Bacterial Efflux Pump of Staphylococcus aureus and Human P-Glycoprotein, Reduces the Biofilm Formation and Intracellular Invasion of Bacteria” (Frontiers in Microbiology, 2017).

Like-named read-outs stand apart in the source and are kept apart here.

What all share (format): cell-based
For assay [1], the target named is T1, NorA multidrug efflux pump (Staphylococcus aureus, UniProt Q03325).
T1 construct: gene norA1199
Put plainly: ethidium bromide efflux and accumulation in NorA-overexpressing SA-1199B cells; no effect in norA knockout SA-K1758.

Assay [2] deals with T1, NorA multidrug efflux pump. Kind of assay: fluorescent efflux and accumulation in NorA-overexpressing, wild-type and knockout S. aureus cells.
The target of assay [3] is T1, NorA multidrug efflux pump.

T1 sequence (Q03325 entry or part of it): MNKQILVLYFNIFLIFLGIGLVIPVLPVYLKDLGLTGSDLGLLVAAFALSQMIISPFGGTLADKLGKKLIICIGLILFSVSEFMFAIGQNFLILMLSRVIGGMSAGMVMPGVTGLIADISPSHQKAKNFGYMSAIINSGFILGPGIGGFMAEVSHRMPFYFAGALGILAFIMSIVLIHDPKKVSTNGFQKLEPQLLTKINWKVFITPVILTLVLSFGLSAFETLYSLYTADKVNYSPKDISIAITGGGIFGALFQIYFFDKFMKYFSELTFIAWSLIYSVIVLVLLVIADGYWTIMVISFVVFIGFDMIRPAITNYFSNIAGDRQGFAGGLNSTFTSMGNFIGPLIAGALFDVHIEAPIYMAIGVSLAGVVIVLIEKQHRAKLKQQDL

`Cc1c(O)cc2oc3c(c(=O)c2c1O)-c1ccccc1OC3O` (stereo not drawn) [boeravinone B, 6,9,11-trihydroxy-10-methylchromeno[3,4-b]chromen-12(6H)-one]: the “ethidium bromide efflux and accumulation in NorA-overexpressing SA-1199B cells;” value in assay [1] is “in cells treated with boeravinone B, the efflux of ethidium bromide was prevented, resulting in the prolonged retention of fluorescence”.

On to `CC[n+]1c(-c2ccccc2)c2cc(N)ccc2c2ccc(N)cc21` [ethidium bromide], for which, in assay [2], the “fluorescent efflux and accumulation in NorA-overexpressing, wild-type and knocko” value is “a rapid decrease occurred in the fluorescence because of the NorA-mediated efflux of ethidium bromide”.

Consider `COC(=O)[C@H]1[C@H]2C[C@@H]3c4[nH]c5cc(OC)ccc5c4CCN3C[C@H]2C[C@@H](OC(=O)c2cc(OC)c(OC)c(OC)c2)[C@@H]1OC` [reserpine], for which the “ethidium bromide efflux and accumulation in NorA-overexpressing SA-1199B cells;” value in assay [3] is “Reserpine, a known efflux pump inhibitor, was used as the positive control in both studies”.
